One experiment deals with T1, FMS kinase (Homo sapiens, UniProt P07333).
T1 construct: purchased Invitrogen (Life Technologies)
In words: LanthaScreen Eu Kinase Binding Assay (ATP, fluorescent-PolyGT substrate). The format is biochemical. Summed up:
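TR-FRET read (ex 340, em 495 and 520 nm) after EDTA/Tb-labelled antibody stop; IC50 by four-parameter logistic fit of percent inhibition. Reaction: 1.25 nM FMS, 10 min compound preincubation (3-fold series), then 1 h at room temperature with 10 μM ATP and 200 nM fluorescent PolyGT.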
A general note: In TR-FRET formats the signal depends on donor and acceptor labels being close together.

The subject of experiment [1] is DU4475 breast carcinoma cells. Description: Cancer cell proliferation assay, single agent (cell viability). The experiment is classed as cell-based. To be noted: Homo sapiens, DU-4475; Table 4; Rb negative; treatment 144 Hr with medium change at 72 Hr; Cell Titer-Glo or resazurin. Summed up: (§1)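 Viability read by resazurin or CellTiter-Glo after 24 h treatment (BT-549) or 144 h with a 72 h medium change (MCF-7, DU4475). Compounds tested at 7–9 concentrations, e.g. 1.1 nM–10 μM, added the day after seeding; IC50 by nonlinear sigmoidal regression.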
For orientation: ATP-based viability assays read luminescence as a measure of living cells.

The target of another experiment is T2, CDK2 (cyclin A) (Homo sapiens, UniProt P24941).
T2 construct: purchased Invitrogen Life Technologies (assay service)
Description: Z'-LYTE kinase assay. The experiment is classed as biochemical. As to the method: IC50 values of compounds against CDK2 (cyclin A) were determined by Z′-LYTE™ These screening assays were performed at Invitrogen Life Technologies (Grand Island, N.Y.) on a low volume NBS, black 384-well plate (#4514, Corning). 0.1 μL of 100×test compound in 100% DMSO (at specific solutions) was mixed with 2.4 μL of Kinase Buffer (50 mM HEPES pH 7.5, 0.01% BRIJ-35, 10 mM MgCl2, 1 mM EGTA), 5 μL of 2× Kinase (1.22-10.3 ng CDK2/cyclin A)/Peptide (2 μM Ser/Thr 12), and 2.5 μL of 4×ATP solution (31 μM). The plates were shaken for 30 seconds, and incubated for 60 minutes at room temperature. Development Reagent Solution (5 μL of 1:1024 dilution) was added to the plates followed with another 30-second plate shake and the plates were further incubated at room temperature for one hour. The plates were read on fluorescence plate reader with Dual emission at 445 nm and 520 nm.
The following equations were used for Z′-LYTE™ Screening Assay Data Analysis. Percent inhibition (100-% activity) was fitted to the “four-parameter logistic model” in XLfit for determination of IC50 values.

The target in the next experiment is T3, CDK6 (Homo sapiens, UniProt Q00534).
T3 construct: purchased Invitrogen PR8422B
T3 sequence (Q00534 whole entry): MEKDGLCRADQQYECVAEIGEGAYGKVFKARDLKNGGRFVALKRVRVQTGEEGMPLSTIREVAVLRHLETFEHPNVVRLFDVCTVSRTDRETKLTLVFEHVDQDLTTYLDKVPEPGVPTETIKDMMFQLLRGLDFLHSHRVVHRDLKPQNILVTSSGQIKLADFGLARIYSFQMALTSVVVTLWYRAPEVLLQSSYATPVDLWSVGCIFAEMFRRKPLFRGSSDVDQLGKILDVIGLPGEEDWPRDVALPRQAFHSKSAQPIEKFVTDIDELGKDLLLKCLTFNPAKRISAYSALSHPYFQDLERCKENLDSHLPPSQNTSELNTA
T3 sequence (P24385 whole entry partner): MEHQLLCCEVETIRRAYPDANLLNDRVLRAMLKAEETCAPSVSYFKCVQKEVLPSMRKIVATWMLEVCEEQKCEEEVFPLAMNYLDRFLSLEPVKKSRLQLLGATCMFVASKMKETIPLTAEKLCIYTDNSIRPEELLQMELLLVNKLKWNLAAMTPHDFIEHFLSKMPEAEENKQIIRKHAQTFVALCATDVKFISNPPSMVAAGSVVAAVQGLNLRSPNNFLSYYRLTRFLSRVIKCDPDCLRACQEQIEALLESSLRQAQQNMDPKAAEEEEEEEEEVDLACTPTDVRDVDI
Description: In vitro kinase inhibition IC50, luminescence (ADP Glo), retinoblastoma substrate. The experiment is classed as biochemical. As to conditions: read-out: CDK6/D1 IC50. Summed up:
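IC50 derived by four-parameter logistic fit of percent inhibition, read as ADP-Glo luminescence. Reactions: 5 nM CDK6, 1 μM retinoblastoma, 25 μM ATP, test compound 0.1–200 nM final, 2 h at room temperature.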
On the technique in general: ADP-Glo first removes unused ATP, then detects ADP through luciferase.

Another experiment deals with T4, CDK4 (Homo sapiens, UniProt P11802).
T4 construct: purchased Invitrogen PR8064A
T4 sequence (P11802 whole entry): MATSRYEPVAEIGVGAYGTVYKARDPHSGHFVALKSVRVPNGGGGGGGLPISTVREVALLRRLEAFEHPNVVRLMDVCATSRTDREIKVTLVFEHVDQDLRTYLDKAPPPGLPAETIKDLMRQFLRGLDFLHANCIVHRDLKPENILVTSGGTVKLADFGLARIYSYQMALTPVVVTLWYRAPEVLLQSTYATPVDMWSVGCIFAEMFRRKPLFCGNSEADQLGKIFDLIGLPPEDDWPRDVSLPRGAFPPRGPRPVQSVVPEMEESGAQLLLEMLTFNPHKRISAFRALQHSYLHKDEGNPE
T4 sequence (P24385 whole entry partner): as the sequence (P24385 whole entry partner) above
Described as above. The format is biochemical. To be noted: read-out: CDK4/D1 IC50. Summed up:
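Inhibition of CDK4 was quantified by ADP Glo luminescence with retinoblastoma as substrate. Reactions held 5 nM kinase, 1 μM retinoblastoma and 25 μM ATP and ran 2H at room temperature. A Synergy Neo reader took signals 15 min and 45 min after detection reagent, and percent inhibition was fitted to a four-parameter logistic model in XLfit to obtain IC50.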

A further experiment has as its target T5, CDK1 (cyclin B) (Homo sapiens, UniProt P06493).
T5 construct: purchased Invitrogen Life Technologies (assay service)
In words: Z'-LYTE kinase assay. The format is biochemical. As to the method: The plates were shaken for 30 seconds, and incubated for 60 minutes at room temperature. […] The plates were read on fluorescence plate reader with Dual emission at 445 nm and 520 nm.
The following equations were used for Z′-LYTE™ Screening Assay Data Analysis.

For experiment [2], the system named is MCF-7 breast adenocarcinoma cells. In words: Cancer cell proliferation assay, single agent (cell viability). The format is cell-based. To be noted: Homo sapiens, MCF7, Table 4; Rb positive; treatment 144 Hr with medium change at 72 Hr; Cell Titer-Glo or resazurin. Summed up: as §1

Drawing on US20220273659A1, “HETEROCYCLIC COMPOUNDS AS KINASE INHIBITORS” (NUVATION BIO INC., priority 2019, published 2022), this text covers IC50 for 14 compounds.

Like-named read-outs stand apart in the source and are kept apart here. Some results are limits rather than exact numbers.

T5 sequence (P06493 whole entry): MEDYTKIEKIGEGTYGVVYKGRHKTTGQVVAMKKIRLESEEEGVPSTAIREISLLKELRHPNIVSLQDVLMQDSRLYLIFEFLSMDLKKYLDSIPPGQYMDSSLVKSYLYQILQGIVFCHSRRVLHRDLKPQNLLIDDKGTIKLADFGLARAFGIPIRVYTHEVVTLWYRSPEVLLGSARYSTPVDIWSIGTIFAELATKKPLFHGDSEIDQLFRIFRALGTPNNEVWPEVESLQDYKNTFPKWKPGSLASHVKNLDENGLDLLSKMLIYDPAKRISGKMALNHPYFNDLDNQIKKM
T5 sequence (P14635 whole entry partner): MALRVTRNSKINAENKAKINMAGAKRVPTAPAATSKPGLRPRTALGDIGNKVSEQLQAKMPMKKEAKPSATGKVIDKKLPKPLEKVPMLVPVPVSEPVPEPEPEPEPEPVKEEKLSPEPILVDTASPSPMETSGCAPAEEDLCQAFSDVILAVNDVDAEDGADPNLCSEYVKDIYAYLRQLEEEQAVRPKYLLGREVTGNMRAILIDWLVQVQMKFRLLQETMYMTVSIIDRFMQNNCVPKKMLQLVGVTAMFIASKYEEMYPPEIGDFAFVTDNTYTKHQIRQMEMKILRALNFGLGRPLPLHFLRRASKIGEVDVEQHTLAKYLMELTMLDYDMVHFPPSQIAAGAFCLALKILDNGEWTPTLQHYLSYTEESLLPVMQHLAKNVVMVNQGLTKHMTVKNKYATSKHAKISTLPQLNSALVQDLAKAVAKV
T1 sequence (P07333 20-972): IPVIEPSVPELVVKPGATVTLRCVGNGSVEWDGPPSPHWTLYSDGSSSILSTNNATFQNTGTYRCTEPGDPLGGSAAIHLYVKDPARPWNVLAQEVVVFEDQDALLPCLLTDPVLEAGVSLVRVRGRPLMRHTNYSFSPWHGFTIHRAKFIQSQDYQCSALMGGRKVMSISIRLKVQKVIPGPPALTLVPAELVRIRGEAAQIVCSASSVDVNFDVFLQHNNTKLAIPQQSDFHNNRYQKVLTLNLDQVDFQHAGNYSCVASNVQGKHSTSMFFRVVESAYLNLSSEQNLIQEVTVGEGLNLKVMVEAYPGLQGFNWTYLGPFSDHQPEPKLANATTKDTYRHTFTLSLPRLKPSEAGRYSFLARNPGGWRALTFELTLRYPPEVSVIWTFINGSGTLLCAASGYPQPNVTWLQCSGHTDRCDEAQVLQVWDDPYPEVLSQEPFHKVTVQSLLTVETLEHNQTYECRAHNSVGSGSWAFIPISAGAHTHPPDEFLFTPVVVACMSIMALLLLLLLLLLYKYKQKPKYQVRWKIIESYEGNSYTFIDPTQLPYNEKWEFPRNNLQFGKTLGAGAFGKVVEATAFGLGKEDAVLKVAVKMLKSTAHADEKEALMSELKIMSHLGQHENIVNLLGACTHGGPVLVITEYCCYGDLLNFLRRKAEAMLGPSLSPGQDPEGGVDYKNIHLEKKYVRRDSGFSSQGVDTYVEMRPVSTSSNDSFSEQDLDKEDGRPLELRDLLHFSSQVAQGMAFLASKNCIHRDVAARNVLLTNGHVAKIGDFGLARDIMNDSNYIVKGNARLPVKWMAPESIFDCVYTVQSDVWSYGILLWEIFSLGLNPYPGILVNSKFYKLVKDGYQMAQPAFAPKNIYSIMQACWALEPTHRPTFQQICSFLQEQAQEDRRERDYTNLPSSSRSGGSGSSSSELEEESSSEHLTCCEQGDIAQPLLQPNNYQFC

In the case of `CS(=O)(=O)N1CCC(Nc2ncc3cc(C#N)c(=O)n(-c4c(F)cccc4F)c3n2)CC1` [Compound No. 376, 8-(2,6-difluorophenyl)-2-((1-(methylsulfonyl)piperidin-4-yl)amino)-7-oxo-7,8-dihydropyrido[2,3-d]pyrimidine-6-carbonitrile], the IC50 at FMS kinase was 0.402 µM; in experiment [1] it was 2.44 µM; on CDK2 (cyclin A), 0.17 µM; on CDK6, 0.058 µM; on CDK4 it was 0.159 µM; on CDK1 (cyclin B), 1.46 µM.

On to `Cn1ccc(S(=O)(=O)N2CCC(Nc3ncc4cc(C#N)c(=O)n(C5CCCC5)c4n3)CC2)n1` [Compound No. 373, 8-cyclopentyl-2-((1-((1-methyl-1H-pyrazol-3-yl)sulfonyl)piperidin-4-yl)amino)-7-oxo-7,8-dihydropyrido[2,3-d]pyrimidine-6-carbonitrile], for which the IC50 was 1.44 µM on FMS kinase; 0.2 µM in experiment [1]; 0.042 µM at CDK2 (cyclin A); 0.004 µM on CDK6; 0.004 µM on CDK4; 0.912 µM against CDK1 (cyclin B).

For `N#Cc1cc2cnc(Nc3ccc4c(c3)CCN(C(=O)CO)C4)nc2n(C2CCCC2)c1=O` [Compound No. 70, 8-cyclopentyl-2-((2-(2-hydroxyacetyl)-1,2,3,4-tetrahydroisoquinolin-6-yl)amino)-7-oxo-7,8-dihydropyrido[2,3-d]pyrimidine-6-carbonitrile], the IC50 in experiment [1] was found to be 1.18 µM; in experiment [2], 0.818 µM; against CDK2 (cyclin A), 0.027 µM; on CDK6 it was 0.006 µM; at CDK4, 0.012 µM; on CDK1 (cyclin B) (read-out: CDK1/B IC50), 0.354 µM.

On to `CS(=O)(=O)N1CCC(Nc2ncc3cc(C#N)c(=O)n(C45CC(C4)C5)c3n2)CC1` [Compound No. 369, 8-(bicyclo[1.1.1]pentan-1-yl)-2-((1-(methylsulfonyl)piperidin-4-yl)amino)-7-oxo-7,8-dihydropyrido[2,3-d]pyrimidine-6-carbonitrile], for which the IC50 amounted to 0.67 µM in experiment [1]; 0.107 µM in experiment [2]; 0.007 µM against CDK2 (cyclin A); 0.0055 µM at CDK6; 0.007 µM at CDK4; 0.087 µM on CDK1 (cyclin B) (read-out: CDK1/B IC50).

As for `N#Cc1cc2cnc(NC3CCCC3O)nc2n(C2CCCC2)c1=O` (stereo not drawn) [Compound No. 349, 8-cyclopentyl-2-((2-hydroxycyclopentyl)amino)-7-oxo-7,8-dihydropyrido[2,3-d]pyrimidine-6-carbonitrile], the IC50 was 5.66 µM in experiment [1]; 0.77 µM in experiment [2]; 0.475 µM at CDK2 (cyclin A); 0.062 µM at CDK6; 0.029 µM on CDK4; 0.735 µM at CDK1 (cyclin B) (read-out: CDK1/B IC50).

`CCCCCc1ccc(S(=O)(=O)N2CCC(Nc3ncc4cc(C#N)c(=O)n(C5CCCC5)c4n3)CC2)cc1` [Compound No. 381, 8-cyclopentyl-7-oxo-2-(1-(4-pentylphenylsulfonyl)piperidin-4-ylamino)-7,8-dihydropyrido[2,3-d]pyrimidine-6-carbonitrile]: the IC50 was over 10 µM in experiment [1]; 0.743 µM in experiment [2]; 0.057 µM against CDK2 (cyclin A); 0.12 µM at CDK6; over 0.2 µM at CDK4; over 3.57 µM at CDK1 (cyclin B) (read-out: CDK1/B IC50).

With `CCCCCCc1ccc(S(=O)(=O)N2CCC(Nc3ncc4cc(C#N)c(=O)n(C5CCCC5)c4n3)CC2)cc1` [Compound No. 382, 8-cyclopentyl-2-(1-(4-hexylphenylsulfonyl)piperidin-4-ylamino)-7-oxo-7,8-dihydropyrido[2,3-d] pyrimidine-6-carbonitrile], the IC50 in experiment [1] was over 10 µM; in experiment [2] it was 1.84 µM; against CDK2 (cyclin A) it was 0.209 µM; on CDK6 it was over 0.2 µM; on CDK4, over 0.2 µM; at CDK1 (cyclin B) (read-out: CDK1/B IC50) it was over 4.86 µM.

For `N#Cc1cc2cnc(Nc3ccc4c(c3)CCN(CC(N)=O)C4)nc2n(C2CCCC2)c1=O` [Compound No. 69, 2-(6-((6-cyano-8-cyclopentyl-7-oxo-7,8-dihydropyrido[2,3-d]pyrimidin-2-yl)amino)-3,4-dihydroisoquinolin-2(1H)-yl)acetamide], the IC50 in experiment [1] is 1.69 µM; in experiment [2], 1.99 µM; on CDK2 (cyclin A) it was 0.252 µM; on CDK6, 0.007 µM; at CDK4, 0.012 µM; at CDK1 (cyclin B) (read-out: CDK1/B IC50), 0.683 µM.

In the case of `CN(C)CCN1CCc2cc(Nc3ncc4cc(C#N)c(=O)n(C5CCCC5)c4n3)ccc2C1` [Compound No. 63, 8-cyclopentyl-2-((2-(2-(dimethylamino)ethyl)-1,2,3,4-tetrahydroisoquinolin-6-yl)amino)-7-oxo-7,8-dihydropyrido[2,3-d]pyrimidine-6-carbonitrile], the IC50 came out at 1.44 µM in experiment [1]; 0.266 µM in experiment [2]; 0.19 µM at CDK2 (cyclin A); 0.004 µM at CDK6; 0.011 µM on CDK4; 0.655 µM on CDK1 (cyclin B) (read-out: CDK1/B IC50).

Regarding `N#Cc1cc2cnc(NC3CCN(S(=O)(=O)C(F)(F)F)CC3)nc2n(C2CCCC2)c1=O` [Compound No. 371, 8-cyclopentyl-7-oxo-2-((1-((trifluoromethyl)sulfonyl)piperidin-4-yl)amino)-7,8-dihydropyrido[2,3-d]pyrimidine-6-carbonitrile], the IC50 in experiment [1] was 2.6 µM; in experiment [2], 0.515 µM; at CDK2 (cyclin A), 3.41 µM; at CDK6, 0.025 µM; at CDK4, 0.014 µM; at CDK1 (cyclin B) (read-out: CDK1/B IC50), over 5 µM.

For `C[C@@]1(O)CCC[C@H]1n1c(=O)c(C#N)cc2cnc(NC3CCN(S(C)(=O)=O)CC3)nc21` [Compound No. 380, 8-((1R,2R)-2-hydroxy-2-methylcyclopentyl)-2-(1-(methylsulfonyl)piperidin-4-ylamino)-7-oxo-7,8-dihydropyrido[2,3-d]pyrimidine-6-carbonitrile], the IC50 in experiment [1] was 0.715 µM; in experiment [2] it was 1.22 µM; at CDK2 (cyclin A) it was 0.0055 µM; on CDK6, 0.015 µM; at CDK4 it was 0.03 µM; at CDK1 (cyclin B) (read-out: CDK1/B IC50) it was 0.055 µM.

As to `CS(=O)(=O)N1CCC(Nc2ncc3cc(C#N)c(=O)n([C@H]4CCC(F)(F)C4)c3n2)CC1` [Compound No. 384, (S)-8-(3,3-difluorocyclopentyl)-2-(1-(methylsulfonyl)piperidin-4-ylamino)-7-oxo-7,8-dihydropyrido[2,3-d]pyrimidine-6-carbonitrile], the IC50 in experiment [1] was 5.69 µM; in experiment [2] it was 1.6 µM; at CDK2 (cyclin A), 0.028 µM; at CDK6, 0.02 µM; on CDK4 it was 0.024 µM; at CDK1 (cyclin B), 0.585 µM.

Consider `CS(=O)(=O)N1CCC(Nc2ncc3cc(C#N)c(=O)n([C@@H]4CCC(F)(F)C4)c3n2)CC1` [Compound No. 385, (R)-8-(3,3-difluorocyclopentyl)-2-(1-(methylsulfonyl)piperidin-4-ylamino)-7-oxo-7,8-dihydropyrido[2,3-d]pyrimidine-6-carbonitrile], for which the IC50 was over 10 µM in experiment [1]; 2.82 µM in experiment [2]; 0.096 µM against CDK2 (cyclin A); 0.065 µM at CDK6; 0.049 µM at CDK4; 2.62 µM at CDK1 (cyclin B).

Regarding `N#Cc1cc2cnc(Nc3ccc4c(n3)CCNC4)nc2n(C2CCCC2)c1=O` [Compound No. 61, 8-cyclopentyl-7-oxo-2-((5,6,7,8-tetrahydro-1,6-naphthyridin-2-yl)amino)-7,8-dihydropyrido[2,3-d]pyrimidine-6-carbonitrile], the IC50 was 4.48 µM in experiment [1]; 2.73 µM in experiment [2]; 2.78 µM against CDK2 (cyclin A); 0.054 µM on CDK6; 0.098 µM on CDK4; over 5 µM on CDK1 (cyclin B) (read-out: CDK1/B IC50).
